Results published in US9963433B2, “Anticancer drugs including the chemical structures of an androgen receptor ligand and a histone deacetylase inhibitor” (Wayne State University, priority 2016, dated 2018).

How the values were obtained:
DLC1 mRNA in LNCaP cells = experiment: In situ HDACi activity: DLC1 mRNA in LNCaP cells; format: cell-based; details: 10 μM, 48 h, normalized to GAPDH mRNA, FIG. 2E
Experimental: FIGS. 2A-2F show measurement of intrinsic and in situ HDACi activities. […]. IC50 values were calculated from nonlinear regression plots using GraphPad Prism5 software. (2B) Enz, 1002 and 3-52 were tested against HeLa cell nuclear extract at 10 μM and 25 μM and TSA (1 μM) was used as positive control. […] Recombinant HDAC6 was incubated with each drug at the indicated concentrations. IC50 values were calculated from nonlinear regression plots using GraphPad Prism5 software. (2D) Enz, 1002 and 3-52 were tested against recombinant HDAC6 at 10 μM and 25 μM and TSA (1 μM) was used as positive control. […]
Cell Culture and Reagents. LNCaP and 22Rv1 cell lines were from American Type Culture Collection (Manassas, Va.). C4-2 cells were kindly provided by Dr. Edwin Sanchez (University of Toledo). LNCaP and C4-2 cells were routinely grown at 37° C. in 5% CO2 in RPMI 1640 medium supplemented with 10% FBS (Invitrogen); 100 units/ml penicillin, 100 μg/ml streptomycin, 2 mM L-glutamine mixture (Invitrogen); and sodium pyruvate (1 mM) (Invitrogen). 22Rv1 cells were grown in RPMI 1640 medium supplemented with 10% FBS (Invitrogen); 100 units/ml penicillin, 100 μg/ml streptomycin, 2 mM L-glutamine mixture (Invitrogen). Affinity-purified rabbit anti-human antibody to AR (sc-816) and mouse anti-human antibody to GAPDH (sc-47724) were purchased from Santa Cruz Biotechnology (Santa Cruz, Calif.). Affinity-purified rabbit anti-human antibody to Hsp90 (C45G5) #4877 and rabbit anti-human antibody to acetylated lysine #9441 were purchased from Cell Signaling Technology. R1881 was kindly provided by Dr. Stephan Patrick (Karmanos Cancer Institute). All experiments were conducted using phenol-red free growth media. For hormone depletion, cells were grown in phenol-red free RPMI 1640 medium supplemented with 10% charcoal stripped FBS (Sigma-Aldrich) which was heat inactivated at 56° C. for thirty minutes, and a mixture of 100 units/ml penicillin, 100 μg/ml streptomycin and 2 mM L-glutamine for 96 h.
(§1) RNA isolation, Reverse Transcription, and Real Time PCR. Total RNA was isolated from cells using the RNeasy Mini Kit (Qiagen). Reverse transcription PCR was then performed using 500 ng of total RNA with random primers and using the high-capacity complementary DNA Archive kit (Applied Biosystems). The complementary DNA from this reaction was measured using quantitative real time PCR using the StepONE Plus Real Time PCR system (Life Technologies Corporation, Carlsbad, Calif.). All reactions were performed in triplicate and normalized to glyceraldehyde-3-phosphate-dehydrogenase values in the same samples. All primers and Taqman probes were purchased from the applied Biosystems inventory (Invitrogen) (Patki et al., 2015).
. […]

[1] = system: KLK3 mRNA (AR target gene) in C4-2 cells; experiment: Inhibition of R1881 activation of KLK3 mRNA in C4-2 cells; format: cell-based; details: hormone depleted 96 h, R1881 1 nM, compound 1-10 μM, 48 h, FIG. 3A
Experimental: Cell Culture and Reagents. LNCaP and 22Rv1 cell lines were from American Type Culture Collection (Manassas, Va.). C4-2 cells were kindly provided by Dr. Edwin Sanchez (University of Toledo). […] R1881 was kindly provided by Dr. Stephan Patrick (Karmanos Cancer Institute). All experiments were conducted using phenol-red free growth media.
as §1, with “samples.” for “samples. All primers and Taqman probes were purchased from the applied Biosystems inventory (Invitrogen) (Patki et al., 2015).”

C4-2 cells = experiment: MTT cell viability assay, C4-2 cells; format: cell-based; details: for EC50: C4-2, 72 h, 0.1 μM-10 μM, read-out: EC50, inhibition of C4-2 cell growth; for cell death (viable cells below the number on Day 0): C4-2 cells, 5 μM, MTT Day 3 relative to Day 0, FIG. 6C
Experimental: (6A) C4-2 cells were seeded in 96-well plates and 24 h later, they were treated with the indicated compounds (0.1 μM-10 μM) or with vehicle (DMSO). Cell viability was measured by the MTT assay on Days 0 and 3 of treatment. EC50 values were calculated from nonlinear regression plots using GraphPad Prism5 software. […] Cell viability was measured by the MTT assay on Days 0 and 3 of treatment. […] Cell viability was measured by the MTT assay on Days 0 and 3 of treatment. […] (6D) 22Rv1 cells were infected with AR shRNA lentivirus, or control shRNA. 72 h after infection, cells were plated and viable cells were measured by the MTT assay on the indicated days (6D, bottom). Cells were also harvested for western blot analysis and probed with antibody to AR, which was also reactive with the AR splice variant AR-V7 (6D, top). (6E) 22Rv1 cells were seeded in 96-well plates and 24 h later, they were treated with the indicated compounds (0.1 μM-10 μM) or with vehicle (DMSO). Cell viability was measured by the MTT assay on Days 0 and 3 of treatment. EC50 values were calculated from nonlinear regression plots using GraphPad Prism5 software.
Cell Proliferation Assay. Cells were trypsinized and 6000 cells/well were seeded in 96-well plates coated with poly-D-lysine. The cells were seeded in phenol red-free medium supplemented with 10% FBS, 100 units/ml penicillin, 100 μg/ml streptomycin, 2 mM L-glutamine mixture and sodium pyruvate (1 mM) for C4-2 cells and phenol red-free medium supplemented with 10% FBS, 100 units/ml penicillin, 100 μg/ml streptomycin and 2 mM L-glutamine mixture for 22Rv1 cells. The cells were grown at 37° C. in 5% CO2. Twenty four hours after seeding in the 96-well plates, the cells were treated with indicated compound or DMSO (vehicle). The culture medium was not changed during the time course of the assay. On Day zero and on Day 3, cell viability was determined using the MTT assay. MTT (10 μL, 5 mg/mL) was added to each well and incubated for 2 h at 37° C. The formazan crystal sediments were dissolved in 100 μL of DMSO, and the absorbance at 570 nm was measured using the BioTek Synergy 2 Microplate Reader (BioTek, Winooski, Vt.). […] IC50 values were calculated from nonlinear […] plots using GraphPad Prism5 software.

Hsp90 = experiment: Western blot of Hsp90 protein in C4-2 cells; details: 1 μM to 10 μM, 24 h, relative to GAPDH, FIG. 4B
Experimental: Cells were then harvested for western blot analysis using antibody to AR (4A), HSP90 (4B), Acetyl-Lysine (4C) or GAPDH (loading control). ImageJ software was used to determine the intensities of the bands relative to the vehicle control for each protein. The values were then divided by the values for GAPDH within the same samples.
Western Blot Analysis. Cells were washed once with phosphate buffered saline (PBS) and then lysed with RIPA buffer (150 mM NaCl, 1% Nonidet P-40, 0.5% sodium deoxycholate, 0.1% SDS, 50 mM Tris of pH 8.0) containing a protease inhibitor cocktail (Pierce, Thermo Fisher Scientific). The cell lysates were then incubated on ice for 40 minutes. Total protein concentrations were estimated using the Bradford Assay (Bio-Rad). Protein samples (10-40 ug) were heated at 95° C. for 5 minutes and resolved by electrophoresis on 8% polyacrylamide-SDS gels and electrophoretically transferred to PVDF membranes (Millipore, Billerica, Mass.). The membranes were then probed overnight at 4° C. with the appropriate primary antibody followed by the appropriate horseradish peroxidase-conjugated secondary antibody.

SMILES	DLC1 mRNA expression (DLC1 mRNA in LNCaP cells)	inhibition of activation of KLK3 by R1881 [1]	EC50 (C4-2 cells; MTT, Day 3, FIG. 6A)	cell death (viable cells below the number on Day 0) (C4-2 cells)	Hsp90 protein level (degradation) (Hsp90)	effect on C4-2 cell growth (C4-2 cells; MTT, Day 3, up to 10 μM, FIG. 6A)
CC1(C)C(=O)N(c2ccc(C#N)c(C(F)(F)F)c2)C(=S)N1c1ccc(C(=O)NCCCCCCC(=O)NO)c(F)c1 [Compound 2-75, 4-(3-(4-cyano-3-(trifluoromethyl)phenyl)-5,5-dimethyl-4-oxo-2-thioxoimidazolidin-1-yl)-2-fluoro-N-(7-(hydroxyamino)-7-oxoheptyl)benzamide]	poor inducers of DLC1 mRNA compared with SAHA	better inhibitors of gene activation by androgen compared with either Enz or SAHA	1.62 µM	caused cell death	more marked reduction in Hsp90	
CC1(C)C(=O)N(c2ccc(C#N)c(C(F)(F)F)c2)C(=S)N1c1ccc(/C=C/C(=O)NO)c(F)c1 [Compound 1005, (E)-3-(4-(3-(4-cyano-3-(trifluoromethyl)phenyl)-5,5-dimethyl-4-oxo-2-thioxoimidazolidin-1-yl)-2-fluorophenyl)-N-hydroxyacrylamide]	poor inducers of DLC1 mRNA compared with SAHA	better inhibitors of gene activation by androgen compared with either Enz or SAHA	3.29 µM	caused cell death	more marked reduction in Hsp90	
CNC(=O)c1ccc(N2C(=S)N(c3ccc(C#N)c(C(F)(F)F)c3)C(=O)C2(C)C)cc1F [Enz, Enzalutamide, reference compound]	had no effect	progressive inhibition at higher doses			had no effect	could not appreciably affect growth even at a concentration of 10 μM
